# Laboratory results taken from patent US8637685B2, “Schweinfurthin analogues” (University of Iowa Research Foundation, priority 2008, dated 2014).
# Key:
# [1] = test system: SF-295 cells; assay: Test A cellular morphology (phalloidin/DAPI staining), SF-295; format: cell-based, human
# Protocol: (§1) Cell Culture—SF-295 cells were maintained in RPMI 1640 supplemented with 10% fetal calf serum, and penstreptamycin. A-549 cells were maintained in F-12 media with 10% fetal calf serum and penstreptamycin. Both cell lines were incubated at 37° C. and 5% CO2.
# (§2) Cellular Morphology—Cells were plated on sterilized coverslips in 6-well plates and allowed to reach 65% confluency before treatment with indicated compounds. At the conclusion of the treatment interval, cells were rinsed and fixed with 3.7% formaldehyde for 15 minutes. After subsequent rinses in PBS, cells were permeabilized with 0.2% triton X-100 for 4 minutes and rinsed in PBS. Cells were then incubated with 1% BSA for 30 minutes before incubation with phalloidin stain (Molecular Probes, Eugene, Oreg.) for 20 minutes. At the completion of staining interval, cells were rinsed and mounted using Vectashield mounting media containing DAPI (Vector laboratories, Inc., Burlingame, Calif.). Slides were imaged using a Bio-Rad Multi-photon microscope and processed using Image-J software.
# [2] = test system: A-549 cells; assay: Test A cellular morphology (phalloidin/DAPI staining), A-549; format: cell-based, human
# Protocol: as §1, §2
# [3] = Fluorescence properties of target compounds (Table 1); format: physicochemical; conditions: for Absorbtion Maximum / Emission Maximum / Extinction Coefficient: Concentration 50 uM; for Extinction Coefficient: in M-1 cm-1 (unit assumed)
# Excerpt: This shift to the green region for the fluorescence emission allows cellular studies on these compounds without any interference from autofluroescence.
# [4] = test system: SF-295 cell line; assay: Test C MTT assay in schweinfurthin sensitive SF-295 cell line; format: cell-based, human
# Excerpt: (§3) The National Cancer Institute 60 human tumor cell line anti-cancer assay has been used for indicating the schweinfurthin-like activity of various analogues. Additionally, a three pronged approach that allows a more rapid turn around can be used. This three pronged testing scheme involves 1) MTT assay in schweinfurthin sensitive human glioma derived SF-295 cell line; 2) MTT assay in the schweinfurthin resistant human non-small cell lung cancer derived cell line A549; and 3) microscopic observation of cell morphology changes at 24 and 48 hours. Compounds displaying schweinfurthin-like activity show a dramatic change in cell morphology at concentrations consistent with anti-cancer activity. This three pronged testing scheme is a very simple method that has successfully identified compounds with and without schweinfurthin-like activity. Accordingly, in one embodiment the invention provides a method for identifying a compound with schweinfurthin-like activity comprising, subjecting the compound to 1) an MTT assay in a schweinfurthin sensitive human glioma derived SF-295 cell line; 2) an MTT assay in the schweinfurthin resistant human non-small cell lung cancer derived cell line A549; and 3) a microscopic observation of cell morphology changes at one or more preselected time points (e.g. at about 24 or 48 hours).
# [5] = test system: A549 cell line; assay: Test C MTT assay in schweinfurthin resistant A549 cell line; format: cell-based, human; conditions: A549 lung cancer line
# Excerpt: as §3
# [6] = test system: SF-295 vs. A549 cell lines; assay: Test C three pronged testing scheme for schweinfurthin-like activity; format: cell-based, human; conditions: for schweinfurthin-like activity: three pronged scheme: MTT SF-295, MTT A549, morphology
# Excerpt: as §3
# [7] = Compound stability (no method given); format: physicochemical
smiles,measurement,setting,value
COc1cc(C=Cc2cc(O)c(CC=C(C)CCC=C(C)C)c(O)c2)cc2c1OC1(C)CCC(O)C(C)(C)C1C2 (stereo not shown) [3-deoxyschweinfurthin B],cell morphology,"[1]; 500 nM, 24 hours",morphologic characteristics similar to control cells
same,cell morphology,"[1]; 500 nM, 48 hours",characteristic changes in cell morphology
same,cell morphology changes induced by schweinfurthins,[1]; time points beyond 24 hours,a decrease in cell area and a reduction in F-actin
same,cell morphology,"[2]; 500 nM, 24 hours or 48 hours",does not induce a morphologic change
COc1cc(/C=C/c2cc(O)c(/C=C/c3ccc([N+](=O)[O-])cc3)c(O)c2)cc2c1O[C@]1(C)CC[C@@H](O)C(C)(C)[C@H]1C2 [Compound 219],"stokes shift compared with amine compounds 227, 232 and 237",[3],larger stokes shifts than the amine compounds
same,Absorbtion Maximum,[3],426
same,Emission Maximum,[3],593
same,Extinction Coefficient,[3],26500
same,activity relative to standard 3-deoxyschweinfurthin B,[4]; SF-295 cell line,almost identical activity to the standard 3-deoxyschweinfurthin B
same,potency rank among compounds tested,[4]; Test C scheme,most potent of these compounds
same,potency relative to 3-deoxyschweinfurthin B,[5],almost an order of magnitude more potent than 3-deoxyschweinfurthin B
same,schweinfurthin-like activity,[6],still shows the significant drop in activity in the A549 line vs. the SF-295 line
COc1cc(/C=C/c2cc3c(c(OC)c2)O[C@]2(C)CC[C@@H](O)C(C)(C)[C@H]2C3)cc(O)c1/C=C/c1ccc([N+](=O)[O-])cc1 [Compound 225],"stokes shift compared with amine compounds 227, 232 and 237",[3],larger stokes shifts than the amine compounds
same,Absorbtion Maximum,[3],429
same,Emission Maximum,[3],557
same,Extinction Coefficient,[3],17902
same,activity relative to the parent resorcinol,[4]; assay not specified,only slightly diminished activity
same,schweinfurthin-like activity,[6],displayed activity as expected
same,stability relative to the parent resorcinol,[7],much improved stability
COc1cc(/C=C/c2cc3c(c(OC)c2)O[C@]2(C)C[C@@H](O)[C@@H](O)C(C)(C)[C@H]2C3)cc(O)c1/C=C/c1ccc([N+](=O)[O-])cc1 [Compound 235],"stokes shift compared with amine compounds 227, 232 and 237",[3],larger stokes shifts than the amine compounds
COc1cc(/C=C/c2cc3c(c(OC)c2)O[C@]2(C)C[C@@H](O)[C@@H](O)C(C)(C)[C@H]2C3)cc(O)c1/C=C/c1ccc(N)cc1 [Compound 237],potency relative to 3-deoxyschweinfurthin B,[6]; cell line not specified,neither of the amine substituted analogues (227 and 237) were more potent than 3-deoxyschweinfurthin B
same,activity relative to 3-deoxy compound 227,[6]; dihydroxylated A-ring vs. 3-deoxy,not significantly more active than the 3-deoxy compound 227
same,schweinfurthin-like activity,[6],did show all of the hall marks of schweinfurthin like activity
C[C@@H](N)[C@H]1CC[C@H](C(=O)Nc2ccncc2)CC1 [Compound Y-27632],cell morphology,[1]; 10 μM,caused jagged F-actin at the periphery and long slender projections to form
same,cell morphology,[2]; 10 μM,induces ruffled F-actin at the edges of the A-549 cells
